Results taken from article PMC11361645, “Characterization of the small Arabidopsis thaliana GTPase and ADP-ribosylation factor-like 2 protein TITAN 5” (Journal of Cell Science, 2024).
Positions count from the first letter of the chain named. pKd: −log10 of the molar value.

What was measured:
Assay type in all cases: binding
[1] = target: T1, TTN5 (TITAN 5) (Arabidopsis thaliana, UniProt Q9ZPX1); experiment: pull-down of GST-TTN5, bound nucleotide by HPLC; conditions: GST fusion; excess free GppNHp; single experiment
T1 construct: gene ARL2
T1 sequence (Q9ZPX1 1-185 limits assumed): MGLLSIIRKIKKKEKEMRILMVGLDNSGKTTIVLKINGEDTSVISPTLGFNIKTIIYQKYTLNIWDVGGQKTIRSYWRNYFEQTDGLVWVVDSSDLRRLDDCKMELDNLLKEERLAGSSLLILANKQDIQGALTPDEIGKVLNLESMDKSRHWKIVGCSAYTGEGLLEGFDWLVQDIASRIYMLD

[2] = target: T2, TTN5 (TITAN 5) (Arabidopsis thaliana, UniProt Q9ZPX1, T30N); experiment: stopped-flow fluorimetry, koff/kon
T2 construct: gene ARL2
T2 sequence (Q9ZPX1 1-185 T30N limits assumed): T1 sequence (Q9ZPX1 1-185 limits assumed) with T30N

[3] = target: T3, TTN5 (TITAN 5) (Arabidopsis thaliana, UniProt Q9ZPX1, Q70L); experiment: stopped-flow fluorimetry, koff/kon
T3 construct: gene ARL2
T3 sequence (Q9ZPX1 1-185 Q70L limits assumed): T1 sequence (Q9ZPX1 1-185 limits assumed) with Q70L

[4] = target: T1, TTN5 (TITAN 5); experiment: stopped-flow fluorimetry, koff/kon

Row | pKd [2] | pKd [3] | pKd [4] | SMILES | pull-down of GST-TTN5, bound nucleotide by HPLC [1]
1 | – | – | – | Nc1nc2c(ncn2[C@@H]2O[C@H](COP(=O)(O)OP(=O)(O)NP(=O)(O)O)[C@@H](O)[C@H]2O)c(=O)[nH]1 [GppNHp] | Isolated GST–TTN5 bound to increasing amounts of GppNHp
2 | 5.51 | 7.21 | 6.57 | CNc1ccccc1C(=O)O[C@H]1C[C@H](n2cnc3c(=O)[nH]c(N)nc32)O[C@@H]1COP(=O)(O)OP(=O)(O)O [mdGDP, 2-deoxy-3-O-N-methylanthraniloyl GDP] | –
